Assay results as given in ChEMBL document CHEMBL4507293 (2021).
Activity calls are given as the source filed them. No cut-off for these calls is given here.

Legend:
[1] = molecular target: T1, cAMP and cAMP-inhibited cGMP 3',5'-cyclic phosphodiesterase 10A (Homo sapiens, UniProt Q9Y233); assay: Biochemical assay (PDE10A)
[2] = molecular target: Mitogen-activated protein kinase kinase kinase kinase 1 (Homo sapiens) (UniProt Q92918); settings: Compound concentration 100.0 nM
[3] = tested on: Phosphatidylinositol 4,5-bisphosphate 3-kinase catalytic subunit alpha isoform (Homo sapiens), P42336 [H1047L]; settings: Compound concentration 100.0 nM
[4] = molecular target: Serine/threonine-protein kinase ULK1 (Homo sapiens) (UniProt O75385); settings: Compound concentration 100.0 nM
[5] = molecular target: B1 bradykinin receptor (Homo sapiens) (UniProt P46663); assay: Inhibition of Bradykinin B1 at 10 µM in the Eurofins-Panlabs radioligand binding assay (Eurofins_assay_212510); settings: Compound concentration 10.0 uM
[6] = molecular target: Neuropeptide Y receptor type 1 (Homo sapiens) (UniProt P25929); assay: Inhibition of Neuropeptide Y Y1 at 10 µM in the Eurofins-Panlabs radioligand binding assay (Eurofins_assay_257010); settings: Compound concentration 10.0 uM
[7] = species: Homo sapiens; assay: Inhibition of Nicotinic Acetylcholine at compound concentration of 10.0 uM in the Eurofins-Panlabs radioligand binding assay (Eurofins_assay_258590); assay type: protein-complex assay; settings: Compound concentration 10.0 uM
[8] = molecular target: Platelet-activating factor receptor (Homo sapiens) (UniProt P25105); assay: Inhibition of Platelet Activating Factor (PAF) at 10 µM in the Eurofins-Panlabs radioligand binding assay (Eurofins_assay_265010); settings: Compound concentration 10.0 uM
[9] = molecular target: B2 bradykinin receptor (Homo sapiens) (UniProt P30411); assay: Bradykinin B2 Eurofins-Panlabs radioligand binding assay; settings: Compound concentration 10.0 uM
[10] = molecular target: T2, Alpha-2C adrenergic receptor (Homo sapiens) (UniProt P18825); assay: Adrenergic alpha2C Eurofins-Panlabs radioligand binding assay; design: ligand concentration 1 nM, non-specific ligand with concentration 10 µM WB-4101, incubation time 60 min, incubation temperature 25 °C; settings: Compound concentration 10.0 uM
T2 sequence (whole entry): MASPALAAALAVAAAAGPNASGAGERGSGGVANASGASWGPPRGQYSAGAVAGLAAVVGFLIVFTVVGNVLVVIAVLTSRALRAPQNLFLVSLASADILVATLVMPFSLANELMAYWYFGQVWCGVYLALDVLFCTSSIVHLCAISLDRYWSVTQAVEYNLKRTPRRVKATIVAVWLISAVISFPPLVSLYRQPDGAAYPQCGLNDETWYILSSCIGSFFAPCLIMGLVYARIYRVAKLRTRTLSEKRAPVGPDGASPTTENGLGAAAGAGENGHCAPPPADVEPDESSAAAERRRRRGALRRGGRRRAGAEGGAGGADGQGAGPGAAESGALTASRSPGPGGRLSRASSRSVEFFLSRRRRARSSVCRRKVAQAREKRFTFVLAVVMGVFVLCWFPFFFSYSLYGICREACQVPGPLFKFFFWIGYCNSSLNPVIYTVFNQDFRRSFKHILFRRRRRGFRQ

[11] = molecular target: C-X-C chemokine receptor type 2 (Homo sapiens) (UniProt P25025); assay: Inhibition of Chemokine CXCR2 (IL-8RB) at 10 µM in the Eurofins-Panlabs radioligand binding assay (Eurofins_assay_244500); settings: Compound concentration 10.0 uM
[12] = molecular target: Melanocortin receptor 3 (Homo sapiens) (UniProt P41968); assay: Inhibition of Melanocortin MC3 at 10 µM in the Eurofins-Panlabs radioligand binding assay (Eurofins_assay_251300); design: ligand concentration 0.035 nM; settings: Compound concentration 10.0 uM
[13] = molecular target: 5-hydroxytryptamine receptor 1B (Homo sapiens) (UniProt P28222); assay: Inhibition of Serotonin (5-Hydroxytryptamine) 5-HT1B at 10 µM in the Eurofins-Panlabs radioligand binding assay (Eurofins_assay_271200); settings: Compound concentration 10.0 uM
[14] = molecular target: Substance-P receptor (Homo sapiens) (UniProt P25103); assay: Tachykinin NK1 Eurofins-Panlabs radioligand binding assay; settings: Compound concentration 10.0 uM
[15] = molecular target: MAP/microtubule affinity-regulating kinase 3 (Homo sapiens) (UniProt P27448); assay: Protein Serine/Threonine Kinase, MARK3 Eurofins-Panlabs enzyme assay; settings: Compound concentration 10.0 uM
[16] = species: Rattus norvegicus; assay: Protein Serine/Threonine Kinase, PKC, Non-Selective Eurofins-Panlabs enzyme assay; settings: Compound concentration 10.0 uM
[17] = molecular target: Melanocyte-stimulating hormone receptor (Homo sapiens) (UniProt Q01726); assay: Melanocortin MC1 Eurofins-Panlabs radioligand binding assay; settings: Compound concentration 10.0 uM
[18] = molecular target: Peroxisome proliferator-activated receptor gamma (Homo sapiens) (UniProt P37231); assay: PPARgamma Eurofins-Panlabs radioligand binding assay; design: ligand concentration 5 nM, non-specific ligand with concentration 0.5 µM L-797773, incubation time 18 h, incubation temperature 15 °C; settings: Compound concentration 10.0 uM
[19] = molecular target: Prostaglandin E2 receptor EP3 subtype (Homo sapiens) (UniProt P43115); assay: Prostanoid EP3 Eurofins-Panlabs radioligand binding assay; design: ligand concentration 0.5 nM, non-specific ligand with concentration 10 µM Prostaglandin EŽ2 (PGE2), incubation time 60 min, incubation temperature 25 °C; settings: Compound concentration 10.0 uM
[20] = molecular target: Insulin receptor (Homo sapiens) (UniProt P06213); assay: Protein Tyrosine Kinase, Insulin Receptor Eurofins-Panlabs enzyme assay; design: substrate with concentration 10 µg/mL Histone H1, incubation time 60 min, incubation temperature 25 °C; settings: Compound concentration 10.0 uM
[21] = species: Homo sapiens; assay: Prostanoid, Thromboxane A2 (TP) Eurofins-Panlabs radioligand binding assay; design: ligand concentration 5 nM, non-specific ligand with concentration 1 µM SQ-29548, incubation time 30 min, incubation temperature 25 °C; settings: Compound concentration 10.0 uM
[22] = molecular target: T1, cAMP and cAMP-inhibited cGMP 3',5'-cyclic phosphodiesterase 10A; assay: Cell assay
[23] = molecular target: Alpha-1D adrenergic receptor (Homo sapiens) (UniProt P25100); settings: Compound concentration 10.0 uM
[24] = molecular target: Beta-1 adrenergic receptor (Homo sapiens) (UniProt P08588); settings: Compound concentration 10.0 uM
[25] = molecular target: Endothelin-1 receptor (Homo sapiens) (UniProt P25101); settings: Compound concentration 10.0 uM
[26] = molecular target: Estrogen receptor (Homo sapiens) (UniProt P03372); settings: Compound concentration 10.0 uM
[27] = molecular target: Glutamate NMDA receptor (Rattus norvegicus) (UniProt P35439+Q00959+Q00960+Q00961+Q62645+Q8VHN2+Q9R1M7); settings: Compound concentration 10.0 uM
[28] = molecular target: Muscarinic acetylcholine receptor M3 (Homo sapiens) (UniProt P20309); settings: Compound concentration 10.0 uM
[29] = molecular target: Sodium-dependent dopamine transporter (Homo sapiens) (UniProt Q01959); settings: Compound concentration 10.0 uM
[30] = molecular target: Sodium-dependent serotonin transporter (Homo sapiens) (UniProt P31645); settings: Compound concentration 10.0 uM
[31] = molecular target: T3, Alpha-2B adrenergic receptor (Homo sapiens) (UniProt P18089); settings: Compound concentration 10.0 uM
T3 sequence (whole entry): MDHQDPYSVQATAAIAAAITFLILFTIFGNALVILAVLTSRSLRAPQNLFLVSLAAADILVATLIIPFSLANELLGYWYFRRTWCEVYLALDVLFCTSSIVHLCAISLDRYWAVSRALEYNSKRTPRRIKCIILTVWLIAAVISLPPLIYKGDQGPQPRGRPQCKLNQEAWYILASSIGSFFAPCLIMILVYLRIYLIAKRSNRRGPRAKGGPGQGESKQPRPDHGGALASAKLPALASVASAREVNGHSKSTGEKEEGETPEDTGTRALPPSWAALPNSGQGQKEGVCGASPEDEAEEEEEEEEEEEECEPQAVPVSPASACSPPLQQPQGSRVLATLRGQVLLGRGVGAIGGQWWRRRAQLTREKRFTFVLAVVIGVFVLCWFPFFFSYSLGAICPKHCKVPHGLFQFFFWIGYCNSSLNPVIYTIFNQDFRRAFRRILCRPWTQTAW

T1 sequence (Q9Y233 whole entry): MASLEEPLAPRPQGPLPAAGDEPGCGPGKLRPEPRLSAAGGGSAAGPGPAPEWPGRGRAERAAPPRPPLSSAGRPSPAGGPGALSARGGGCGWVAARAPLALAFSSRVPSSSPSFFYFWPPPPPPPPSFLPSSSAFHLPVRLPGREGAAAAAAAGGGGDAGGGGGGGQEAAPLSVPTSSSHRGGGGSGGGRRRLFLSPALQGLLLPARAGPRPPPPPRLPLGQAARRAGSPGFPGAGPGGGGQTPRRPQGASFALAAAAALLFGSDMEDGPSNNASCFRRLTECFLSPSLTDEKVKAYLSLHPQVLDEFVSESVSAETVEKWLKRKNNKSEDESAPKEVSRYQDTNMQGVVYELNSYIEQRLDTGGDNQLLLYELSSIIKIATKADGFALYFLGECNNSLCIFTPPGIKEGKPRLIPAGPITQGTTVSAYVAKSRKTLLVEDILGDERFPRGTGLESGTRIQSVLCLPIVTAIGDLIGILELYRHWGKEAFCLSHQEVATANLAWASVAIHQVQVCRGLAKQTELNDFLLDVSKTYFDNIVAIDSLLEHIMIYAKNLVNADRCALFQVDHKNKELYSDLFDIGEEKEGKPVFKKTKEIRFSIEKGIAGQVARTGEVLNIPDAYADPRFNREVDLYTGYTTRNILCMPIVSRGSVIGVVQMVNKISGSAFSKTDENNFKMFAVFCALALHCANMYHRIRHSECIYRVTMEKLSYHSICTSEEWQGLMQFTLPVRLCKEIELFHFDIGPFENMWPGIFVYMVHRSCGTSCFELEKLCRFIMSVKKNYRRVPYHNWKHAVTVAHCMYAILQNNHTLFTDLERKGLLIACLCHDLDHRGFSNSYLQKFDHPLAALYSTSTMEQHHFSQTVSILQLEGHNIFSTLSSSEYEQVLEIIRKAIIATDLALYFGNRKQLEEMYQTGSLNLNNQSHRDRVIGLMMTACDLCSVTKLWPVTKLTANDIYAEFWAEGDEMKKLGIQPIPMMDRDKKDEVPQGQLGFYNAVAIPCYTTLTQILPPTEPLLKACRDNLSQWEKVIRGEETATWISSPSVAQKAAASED
C-X-C chemokine receptor type 2 (Homo sapiens), sequence (P25025 whole entry): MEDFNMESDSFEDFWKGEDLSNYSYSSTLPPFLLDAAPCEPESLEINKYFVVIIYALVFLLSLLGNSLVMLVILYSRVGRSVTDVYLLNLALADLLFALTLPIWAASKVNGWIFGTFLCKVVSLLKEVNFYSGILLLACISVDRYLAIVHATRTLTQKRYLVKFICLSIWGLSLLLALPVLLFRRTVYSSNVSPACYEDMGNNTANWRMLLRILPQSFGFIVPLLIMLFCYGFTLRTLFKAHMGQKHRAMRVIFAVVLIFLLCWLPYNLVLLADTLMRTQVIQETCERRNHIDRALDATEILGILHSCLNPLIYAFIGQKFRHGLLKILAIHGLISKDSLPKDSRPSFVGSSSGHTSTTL
B2 bradykinin receptor (Homo sapiens), sequence (P30411 whole entry): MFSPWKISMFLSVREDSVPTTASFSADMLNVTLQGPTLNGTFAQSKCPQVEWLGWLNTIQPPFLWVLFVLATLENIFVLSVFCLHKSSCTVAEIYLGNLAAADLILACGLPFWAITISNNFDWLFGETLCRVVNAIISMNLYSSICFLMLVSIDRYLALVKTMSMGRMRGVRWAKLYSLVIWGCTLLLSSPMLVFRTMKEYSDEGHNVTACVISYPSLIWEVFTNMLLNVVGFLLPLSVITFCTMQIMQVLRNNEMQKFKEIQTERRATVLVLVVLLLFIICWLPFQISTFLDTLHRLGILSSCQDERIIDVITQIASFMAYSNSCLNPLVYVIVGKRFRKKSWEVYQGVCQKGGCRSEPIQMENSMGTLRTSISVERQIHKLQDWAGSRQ
Endothelin-1 receptor (Homo sapiens), sequence (P25101 whole entry): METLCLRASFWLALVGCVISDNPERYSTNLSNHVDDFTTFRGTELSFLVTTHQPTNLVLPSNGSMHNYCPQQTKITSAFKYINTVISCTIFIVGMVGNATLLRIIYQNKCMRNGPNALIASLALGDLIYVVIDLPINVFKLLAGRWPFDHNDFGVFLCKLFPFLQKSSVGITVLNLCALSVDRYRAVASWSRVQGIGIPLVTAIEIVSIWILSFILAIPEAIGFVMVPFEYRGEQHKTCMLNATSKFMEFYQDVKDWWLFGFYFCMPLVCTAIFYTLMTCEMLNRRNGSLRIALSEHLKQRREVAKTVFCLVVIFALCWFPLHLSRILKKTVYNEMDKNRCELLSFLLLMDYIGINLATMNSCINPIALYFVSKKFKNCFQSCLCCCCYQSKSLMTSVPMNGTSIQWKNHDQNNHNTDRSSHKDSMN
Melanocortin receptor 3 (Homo sapiens), sequence (P41968 whole entry): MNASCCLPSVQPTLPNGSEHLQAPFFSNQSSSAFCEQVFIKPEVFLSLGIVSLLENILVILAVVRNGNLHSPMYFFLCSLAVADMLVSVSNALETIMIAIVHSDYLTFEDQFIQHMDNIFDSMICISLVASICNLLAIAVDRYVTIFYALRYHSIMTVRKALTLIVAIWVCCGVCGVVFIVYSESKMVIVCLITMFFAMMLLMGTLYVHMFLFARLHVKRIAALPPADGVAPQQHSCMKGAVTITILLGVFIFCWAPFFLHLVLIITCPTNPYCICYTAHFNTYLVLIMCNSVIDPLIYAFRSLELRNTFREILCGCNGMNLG
5-hydroxytryptamine receptor 1B (Homo sapiens), sequence (P28222 whole entry): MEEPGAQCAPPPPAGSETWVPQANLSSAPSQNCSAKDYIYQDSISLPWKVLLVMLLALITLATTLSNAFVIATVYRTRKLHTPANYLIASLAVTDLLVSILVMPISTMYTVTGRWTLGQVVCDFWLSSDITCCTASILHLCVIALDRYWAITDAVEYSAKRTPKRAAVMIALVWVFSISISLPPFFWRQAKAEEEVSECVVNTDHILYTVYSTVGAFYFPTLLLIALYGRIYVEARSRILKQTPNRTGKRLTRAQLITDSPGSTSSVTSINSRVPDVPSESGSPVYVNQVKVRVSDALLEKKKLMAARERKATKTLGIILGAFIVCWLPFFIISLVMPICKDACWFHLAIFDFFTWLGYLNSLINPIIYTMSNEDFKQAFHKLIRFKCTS
Platelet-activating factor receptor (Homo sapiens), sequence (P25105 whole entry): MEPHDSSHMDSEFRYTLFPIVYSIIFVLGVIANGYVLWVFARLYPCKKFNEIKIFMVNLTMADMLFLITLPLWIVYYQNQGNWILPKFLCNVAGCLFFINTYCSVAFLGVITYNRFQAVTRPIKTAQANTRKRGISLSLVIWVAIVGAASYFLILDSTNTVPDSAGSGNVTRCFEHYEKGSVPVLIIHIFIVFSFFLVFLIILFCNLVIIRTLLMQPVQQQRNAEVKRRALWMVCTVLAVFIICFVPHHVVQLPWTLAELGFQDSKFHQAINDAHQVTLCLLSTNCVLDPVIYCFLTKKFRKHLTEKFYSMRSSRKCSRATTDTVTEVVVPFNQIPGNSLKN
Sodium-dependent serotonin transporter (Homo sapiens), sequence (P31645 whole entry, looked up): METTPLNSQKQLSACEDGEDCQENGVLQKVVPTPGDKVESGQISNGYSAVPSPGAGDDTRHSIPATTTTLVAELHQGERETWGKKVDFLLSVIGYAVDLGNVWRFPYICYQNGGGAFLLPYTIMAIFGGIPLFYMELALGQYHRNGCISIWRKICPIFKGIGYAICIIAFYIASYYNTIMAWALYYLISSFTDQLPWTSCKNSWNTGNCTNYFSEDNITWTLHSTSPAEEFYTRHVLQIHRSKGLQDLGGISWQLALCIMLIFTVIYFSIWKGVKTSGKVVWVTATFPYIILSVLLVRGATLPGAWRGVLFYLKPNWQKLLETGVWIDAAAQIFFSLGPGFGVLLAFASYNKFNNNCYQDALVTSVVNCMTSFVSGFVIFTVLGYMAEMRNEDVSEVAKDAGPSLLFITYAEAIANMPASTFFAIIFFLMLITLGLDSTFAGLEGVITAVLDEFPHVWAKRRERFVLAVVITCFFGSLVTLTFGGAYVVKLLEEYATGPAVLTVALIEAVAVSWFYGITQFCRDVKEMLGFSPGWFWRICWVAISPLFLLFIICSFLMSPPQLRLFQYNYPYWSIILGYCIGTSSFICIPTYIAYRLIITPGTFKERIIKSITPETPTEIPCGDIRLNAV
Alpha-1D adrenergic receptor (Homo sapiens), sequence (P25100 whole entry): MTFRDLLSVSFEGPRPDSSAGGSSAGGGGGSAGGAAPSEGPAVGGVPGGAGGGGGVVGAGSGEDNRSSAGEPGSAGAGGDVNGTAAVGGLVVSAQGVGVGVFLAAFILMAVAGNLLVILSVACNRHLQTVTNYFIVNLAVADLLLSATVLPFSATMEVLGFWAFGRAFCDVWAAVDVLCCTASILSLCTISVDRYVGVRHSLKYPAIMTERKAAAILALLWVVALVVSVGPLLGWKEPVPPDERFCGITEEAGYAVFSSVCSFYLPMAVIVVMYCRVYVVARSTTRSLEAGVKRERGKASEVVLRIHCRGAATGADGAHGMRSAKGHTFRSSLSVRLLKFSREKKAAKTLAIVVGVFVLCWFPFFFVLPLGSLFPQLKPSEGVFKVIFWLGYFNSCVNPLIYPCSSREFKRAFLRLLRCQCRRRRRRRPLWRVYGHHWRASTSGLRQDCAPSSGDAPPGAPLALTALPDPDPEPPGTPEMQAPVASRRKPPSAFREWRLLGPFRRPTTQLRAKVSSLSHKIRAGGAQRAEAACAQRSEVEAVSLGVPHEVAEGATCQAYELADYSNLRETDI
Melanocyte-stimulating hormone receptor (Homo sapiens), sequence (Q01726 whole entry, looked up): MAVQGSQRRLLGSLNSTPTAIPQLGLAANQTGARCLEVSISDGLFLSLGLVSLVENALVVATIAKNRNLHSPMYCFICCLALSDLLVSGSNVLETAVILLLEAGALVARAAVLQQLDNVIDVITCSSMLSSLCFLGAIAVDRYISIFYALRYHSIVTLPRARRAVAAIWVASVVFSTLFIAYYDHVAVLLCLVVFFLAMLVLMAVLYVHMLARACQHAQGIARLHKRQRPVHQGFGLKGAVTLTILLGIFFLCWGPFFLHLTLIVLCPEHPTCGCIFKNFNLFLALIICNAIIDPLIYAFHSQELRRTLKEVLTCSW

For CC(C)CC(=O)N1CCc2nc(-c3ccc(Br)cc3)nc(N(C)Cc3ccccc3)c2C1 [THPP-1-NC], the Ki [1] was 522 nM (not active), the residual activity [2] was 93% and the residual activity [3] was 100%. For the same compound, the residual activity [4] was 90%.
In the case of COCCOc1nc(-c2ccc(Cl)nc2)nc2c1CN(C(=O)c1ncn3ccccc13)CC2 [THPP-1], the inhibition [5] is reported as 28%, the inhibition [6] is reported as 1% and the inhibition [7] is reported as -7%. It also gave an inhibition [8] of -4%, an inhibition [9] of 13% and an inhibition [10] of 3%. It also gave an inhibition [11] of -4%, an inhibition [12] of 0% and an inhibition [13] of 7%. The inhibition [14] was 8%, the inhibition [15] was 7% and the inhibition [16] was 12%. For the same compound, the inhibition [17] was 23%, the inhibition [18] was -4% and the inhibition [19] was -1%. For the same compound, the inhibition [20] was -2%, the inhibition [21] was 8% and the IC50 [22] was 49 nM (active). For the same compound, the inhibition [23] was -4.48%, the inhibition [24] was -3% and the inhibition [25] was 1%. For the same compound, the inhibition [26] was -1%, the inhibition [27] was 3% and the inhibition [28] was -6%. For the same compound, the inhibition [29] was -3%, the inhibition [30] was 2% and the inhibition [31] was 1%.
